# Experimental data as given in paper PMC10600247, “Impact of C- and N-terminal protection on the stability, metal chelation and antimicrobial properties of calcitermin” (Scientific Reports, 2023).
# Residues, ends and D or L forms follow the SMILES beside them.
# What was measured:
# C. albicans (ATCC 10231) = experiment: In vitro antifungal CFU assay; type: cell-based, Candida albicans; conditions: pH 5.4; for mean CFU number ± S.D.: per 0.1 mL
# Method: (§1) All microbes were grown at 37 °C in Tryptic Soy Broth (TSB; Biolife, Milan, Italy) or Tryptic Soy Agar plates (TSA, Biolife, Milan, Italy). Peptides were tested at a final concentration C = 0.128, 0.064, 0.032 mg/mL, in the presence or absence of ZnCl2 or CuCl2, at a M:L molar ratio 0.9:1. Briefly, all the microbes were expanded in TSB at 37 °C under agitation for 12 h and then sub-cultured by 1:10 dilution in TSB under the same conditions until reaching OD600nm = 0.3–0.4, as measured by spectrophotometric reading using a GENESYS 10S UV–Vis spectrophotometer (Thermo Scientific, Milan, Italy), corresponding to 0.9–1.2 × 10^7 colony forming units (CFU) per mL, 1.5–2 × 10^8 CFU/mL and 2.4–3.2 × 10^8 CFU/mL, for C. albicans, S. aureus and E. coli respectively. The cultures were then centrifuged at 4500 rpm for 10 min in a SL 8 centrifuge (TX-150 Rotor) (Thermo Scientific, Milan, Italy), and the cellular pellets were washed with PBS pH 5.4. Pelletized cultures were then suspended in 10 mL of PBS pH 5.4, then the suspensions were diluted to a final concentration of 10^4 CFU/mL. Aliquots of 100 µl (corresponding to 10^3 CFU) were seeded in each well of a 96-wells plate. 3 µl of TSB at pH 5.4 were added to each well to obtain a final 1.5% TSB concentration in the culture medium. Peptides were serially diluted in PBS pH 5.4 to C = 0.257, 0.128, and 0.064 mg/mL. ZnCl2 and CuCl2 solutions were added where requested to obtain a M:L ratio 0.9:1. 100 µl of the prepared peptides ± ZnCl2/CuCl2 solutions were then added to each well, obtaining the final 0.128, 0.064 and 0.032 mg/mL peptide concentrations in a total 0.2 mL volume. PBS alone and PBS + ZnCl2/CuCl2 solutions were included as controls. The plates were incubated at 37 °C on a platform rocker with slow stirring for 3 and 24 h. At the end of the incubation times, 100 µl aliquots were taken from each sample and diluted in PBS pH 5.4 to be seeded on TSA plates. Specifically, aliquots were diluted 1:10 at 3 h, and 1:200, 1:100,000 and 1:10 at 24 h, for C. albicans, E. coli, and S. aureus respectively. After incubation for 24 h at 37 °C, grown CFUs were enumerated. Samples were assayed in triplicate in two independent experiments. Student’s t-test was used for the evaluation of significance in biological tests; a p value ≤ 0.05 was considered significant.
# E. coli (ATCC 25922) = experiment: In vitro anti-E. coli CFU assay; type: cell-based, Escherichia coli; conditions: pH 5.4; for mean CFU number ± S.D.: per 0.1 mL
# Method: as §1
# [1] = peptide 0.032 mg/mL + CuCl2 (0.9:1), 3 h
# [2] = peptide 0.032 mg/mL + CuCl2 (0.9:1), 24 h
# [3] = peptide 0.032 mg/mL + ZnCl2 (0.9:1), 3 h
# [4] = peptide 0.032 mg/mL + ZnCl2 (0.9:1), 24 h
# [5] = peptide 0.064 mg/mL + CuCl2 (0.9:1), 3 h
# [6] = peptide 0.064 mg/mL + CuCl2 (0.9:1), 24 h
# [7] = peptide 0.064 mg/mL + ZnCl2 (0.9:1), 3 h
# [8] = peptide 0.064 mg/mL + ZnCl2 (0.9:1), 24 h
# [9] = peptide 0.128 mg/mL + CuCl2 (0.9:1), 3 h
# [10] = peptide 0.128 mg/mL + CuCl2 (0.9:1), 24 h
# [11] = peptide 0.128 mg/mL + ZnCl2 (0.9:1), 3 h
# [12] = peptide 0.128 mg/mL + ZnCl2 (0.9:1), 24 h
# [13] = peptide alone 0.032 mg/mL, 24 h
# [14] = peptide alone 0.064 mg/mL, 24 h
# [15] = peptide alone 0.128 mg/mL, 24 h
compound,measurement,setting,value
"CC[C@H](C)[C@H](NC(=O)[C@H](C)NC(=O)[C@@H](NC(C)=O)C(C)C)C(=O)N[C@@H](C)C(=O)N[C@@H](CC(C)C)C(=O)N[C@@H](CCCCN)C(=O)N[C@@H](C)C(=O)N[C@@H](C)C(=O)N[C@@H](Cc1c[nH]cn1)C(=O)N[C@@H](Cc1ccc(O)cc1)C(=O)N[C@@H](Cc1c[nH]cn1)C(=O)N[C@H](C(=O)N[C@@H](Cc1c[nH]cn1)C(=O)N[C@@H](CCCCN)C(=O)N[C@@H](CCC(=O)O)C(N)=O)[C@@H](C)O [L2, Ac-VAIALKAAHYHTHKE-NH2] (Ac-VAIALKAAHYHTHKE-NH2)",CFU decrease/increase with respect to untreated controls,C. albicans (ATCC 10231); [1],+9.3%
same,mean CFU number ± S.D.,C. albicans (ATCC 10231); [1],153 ± 26 CFU
same,CFU decrease/increase with respect to untreated controls,C. albicans (ATCC 10231); [2],+16%
same,mean CFU number ± S.D.,C. albicans (ATCC 10231); [2],"1,908 ± 83 CFU"
same,CFU decrease/increase with respect to untreated controls,C. albicans (ATCC 10231); [3],-7.8%
same,mean CFU number ± S.D.,C. albicans (ATCC 10231); [3],129 ± 17 CFU
same,CFU decrease/increase with respect to untreated controls,C. albicans (ATCC 10231); [4],+14%
same,mean CFU number ± S.D.,C. albicans (ATCC 10231); [4],"1,873 ± 83 CFU"
same,CFU decrease/increase with respect to untreated controls,C. albicans (ATCC 10231); [5],+29%
same,mean CFU number ± S.D.,C. albicans (ATCC 10231); [5],180 ± 81 CFU
same,mean CFU number ± S.D.,C. albicans (ATCC 10231); [6],"1,360 ± 140 CFU"
same,CFU decrease/increase with respect to untreated controls,C. albicans (ATCC 10231); [7],-44%
same,mean CFU number ± S.D.,C. albicans (ATCC 10231); [7],79 ± 18 CFU
same,mean CFU number ± S.D.,C. albicans (ATCC 10231); [8],881 ± 99 CFU
same,CFU decrease/increase with respect to untreated controls,C. albicans (ATCC 10231); [9],-7%
same,mean CFU number ± S.D.,C. albicans (ATCC 10231); [9],130 ± 29 CFU
same,mean CFU number ± S.D.,C. albicans (ATCC 10231); [10],"1,256 ± 129 CFU"
same,mean CFU number ± S.D.,C. albicans (ATCC 10231); [11],36 ± 15 CFU
same,mean CFU number ± S.D.,C. albicans (ATCC 10231); [12],50 ± 29 CFU
same,CFU decrease/increase with respect to untreated controls,"C. albicans (ATCC 10231); peptide alone 0.032 mg/mL, 3 h",+51%
same,mean CFU number ± S.D.,"C. albicans (ATCC 10231); peptide alone 0.032 mg/mL, 3 h",211 ± 25 CFU
same,CFU decrease/increase with respect to untreated controls,C. albicans (ATCC 10231); [13],-5%
same,mean CFU number ± S.D.,C. albicans (ATCC 10231); [13],"1,563 ± 72 CFU"
same,CFU decrease/increase with respect to untreated controls,"C. albicans (ATCC 10231); peptide alone 0.064 mg/mL, 3 h",+20%
same,mean CFU number ± S.D.,"C. albicans (ATCC 10231); peptide alone 0.064 mg/mL, 3 h",168 ± 14 CFU
same,CFU decrease/increase with respect to untreated controls,C. albicans (ATCC 10231); [14],-10%
same,mean CFU number ± S.D.,C. albicans (ATCC 10231); [14],"1,480 ± 198 CFU"
same,CFU decrease/increase with respect to untreated controls,"C. albicans (ATCC 10231); peptide alone 0.128 mg/mL, 3 h",+5.7%
same,mean CFU number ± S.D.,"C. albicans (ATCC 10231); peptide alone 0.128 mg/mL, 3 h",148 ± 24 CFU
same,CFU decrease/increase with respect to untreated controls,C. albicans (ATCC 10231); [15],+6%
same,mean CFU number ± S.D.,C. albicans (ATCC 10231); [15],"1,732 ± 249 CFU"
same,mean CFU number ± S.D.,E. coli (ATCC 25922); [1],467 ± 19 CFU
same,CFU decrease/increase with respect to untreated controls,E. coli (ATCC 25922); [2],-2.9%
same,mean CFU number ± S.D.,E. coli (ATCC 25922); [2],167 ± 37 CFU
same,mean CFU number ± S.D.,E. coli (ATCC 25922); [3],378 ± 8 CFU
same,CFU decrease/increase with respect to untreated controls,E. coli (ATCC 25922); [4],-12.7%
same,mean CFU number ± S.D.,E. coli (ATCC 25922); [4],150 ± 4 CFU
same,mean CFU number ± S.D.,E. coli (ATCC 25922); [5],371 ± 54 CFU
same,CFU decrease/increase with respect to untreated controls,E. coli (ATCC 25922); [6],-2.9%
same,mean CFU number ± S.D.,E. coli (ATCC 25922); [6],167 ± 12 CFU
same,mean CFU number ± S.D.,E. coli (ATCC 25922); [7],248 ± 88 CFU
same,CFU decrease/increase with respect to untreated controls,E. coli (ATCC 25922); [8],-15.1%
same,mean CFU number ± S.D.,E. coli (ATCC 25922); [8],146 ± 6 CFU
same,mean CFU number ± S.D.,E. coli (ATCC 25922); [9],190 ± 15 CFU
same,CFU decrease/increase with respect to untreated controls,E. coli (ATCC 25922); [10],-21%
same,mean CFU number ± S.D.,E. coli (ATCC 25922); [10],136 ± 25 CFU
same,mean CFU number ± S.D.,E. coli (ATCC 25922); [11],44 ± 4 CFU
same,CFU decrease/increase with respect to untreated controls,E. coli (ATCC 25922); [12],-8.1%
same,mean CFU number ± S.D.,E. coli (ATCC 25922); [12],158 ± 18 CFU
same,CFU decrease/increase with respect to untreated controls,"E. coli (ATCC 25922); peptide alone 0.032 mg/mL, 3 h",-1%
same,mean CFU number ± S.D.,"E. coli (ATCC 25922); peptide alone 0.032 mg/mL, 3 h","1,037 ± 161 CFU"
same,CFU decrease/increase with respect to untreated controls,E. coli (ATCC 25922); [13],+9%
same,mean CFU number ± S.D.,E. coli (ATCC 25922); [13],187 ± 11 CFU
same,CFU decrease/increase with respect to untreated controls,"E. coli (ATCC 25922); peptide alone 0.064 mg/mL, 3 h",-2%
same,mean CFU number ± S.D.,"E. coli (ATCC 25922); peptide alone 0.064 mg/mL, 3 h",1031 ± 83 CFU
same,CFU decrease/increase with respect to untreated controls,E. coli (ATCC 25922); [14],+8%
same,mean CFU number ± S.D.,E. coli (ATCC 25922); [14],186 ± 14 CFU
same,CFU decrease/increase with respect to untreated controls,"E. coli (ATCC 25922); peptide alone 0.128 mg/mL, 3 h",-19%
same,mean CFU number ± S.D.,"E. coli (ATCC 25922); peptide alone 0.128 mg/mL, 3 h",845 ± 55 CFU
same,CFU decrease/increase with respect to untreated controls,E. coli (ATCC 25922); [15],-3%
same,mean CFU number ± S.D.,E. coli (ATCC 25922); [15],166 ± 20 CFU
